Columns and labels:
Assay in all cases: cells
Type in all cases: functional, cell-based, Homo sapiens
COLO-800 = settings: Homo sapiens, COLO-800
Description: SANGER: Inhibition of human COLO-800 cell growth in a cell viability assay.

COLO-829 = settings: Homo sapiens, COLO-829
Description: SANGER: Inhibition of human COLO-829 cell growth in a cell viability assay.

CTB-1 = settings: Homo sapiens, CTB-1
Description: SANGER: Inhibition of human CTB-1 cell growth in a cell viability assay.

DEL = settings: Homo sapiens, DEL
Description: SANGER: Inhibition of human DEL cell growth in a cell viability assay.

DMS-79 = settings: Homo sapiens, DMS-79
Description: SANGER: Inhibition of human DMS-79 cell growth in a cell viability assay.

EC-GI-10 = settings: Homo sapiens, EC-GI-10
Description: SANGER: Inhibition of human EC-GI-10 cell growth in a cell viability assay.

ES1 = settings: Homo sapiens, ES1
Description: SANGER: Inhibition of human ES1 cell growth in a cell viability assay.

EW-16 = settings: Homo sapiens, EW-16
Description: SANGER: Inhibition of human EW-16 cell growth in a cell viability assay.

GAK = settings: Homo sapiens, GAK
Description: SANGER: Inhibition of human GAK cell growth in a cell viability assay.

GT3TKB = settings: Homo sapiens, GT3TKB
Description: SANGER: Inhibition of human GT3TKB cell growth in a cell viability assay.

HEL = settings: Homo sapiens, HEL
Description: SANGER: Inhibition of human HEL cell growth in a cell viability assay.

HL-60 = settings: Homo sapiens, HL-60
Description: SANGER: Inhibition of human HL-60 cell growth in a cell viability assay.

JAR = settings: Homo sapiens, JAR
Description: SANGER: Inhibition of human JAR cell growth in a cell viability assay.

K562 = settings: Homo sapiens, K562
Description: SANGER: Inhibition of human K-562 cell growth in a cell viability assay.

KARPAS-45 = settings: Homo sapiens, KARPAS-45
Description: SANGER: Inhibition of human KARPAS-45 cell growth in a cell viability assay.

KE-37 = settings: Homo sapiens, KE-37
Description: SANGER: Inhibition of human KE-37 cell growth in a cell viability assay.

KU812 cell line = settings: Homo sapiens, KU812
Description: SANGER: Inhibition of human KU812 cell growth in a cell viability assay.

LAN-6 = settings: Homo sapiens, LAN-6
Description: SANGER: Inhibition of human LAN-6 cell growth in a cell viability assay.

LB373-MEL-D = settings: Homo sapiens, LB373-MEL-D
Description: SANGER: Inhibition of human LB373-MEL-D cell growth in a cell viability assay.

LC-2-ad = settings: Homo sapiens, LC-2-ad
Description: SANGER: Inhibition of human LC-2-ad cell growth in a cell viability assay.

LNCaP-Clone-FGC = settings: Homo sapiens, LNCaP-Clone-FGC
Description: SANGER: Inhibition of human LNCaP-Clone-FGC cell growth in a cell viability assay.

LS-513 = settings: Homo sapiens, LS-513
Description: SANGER: Inhibition of human LS-513 cell growth in a cell viability assay.

LU-134-A = settings: Homo sapiens, LU-134-A
Description: SANGER: Inhibition of human LU-134-A cell growth in a cell viability assay.

NCI-H209 = settings: Homo sapiens, NCI-H209
Description: SANGER: Inhibition of human NCI-H209 cell growth in a cell viability assay.

NCI-H226 = settings: Homo sapiens, NCI-H226
Description: SANGER: Inhibition of human NCI-H226 cell growth in a cell viability assay.

NCI-H720 = settings: Homo sapiens, NCI-H720
Description: SANGER: Inhibition of human NCI-H720 cell growth in a cell viability assay.

NH-12 = settings: Homo sapiens, NH-12
Description: SANGER: Inhibition of human NH-12 cell growth in a cell viability assay.

NOS-1 = settings: Homo sapiens, NOS-1
Description: SANGER: Inhibition of human NOS-1 cell growth in a cell viability assay.

NTERA-2-cl-D1 = settings: Homo sapiens, NTERA-2-cl-D1
Description: SANGER: Inhibition of human NTERA-S-cl-D1 cell growth in a cell viability assay.

P30-OHK = settings: Homo sapiens, P30-OHK
Description: SANGER: Inhibition of human P30-OHK cell growth in a cell viability assay.

PSN1 = settings: Homo sapiens, PSN1
Description: SANGER: Inhibition of human PSN1 cell growth in a cell viability assay.

QIMR-WIL = settings: Homo sapiens, QIMR-WIL
Description: SANGER: Inhibition of human QIMR-WIL cell growth in a cell viability assay.

RH-1 = settings: Homo sapiens, RH-1
Description: SANGER: Inhibition of human RH-1 cell growth in a cell viability assay.

RPMI-8866 = settings: Homo sapiens, RPMI-8866
Description: SANGER: Inhibition of human RPMI-8866 cell growth in a cell viability assay.

SF-126 = settings: Homo sapiens, SF-126
Description: SANGER: Inhibition of human SF126 cell growth in a cell viability assay.

SF-539 = settings: Homo sapiens, SF-539
Description: SANGER: Inhibition of human SF539 cell growth in a cell viability assay.

SK-LMS-1 = settings: Homo sapiens, SK-LMS-1
Description: SANGER: Inhibition of human SK-LMS-1 cell growth in a cell viability assay.

SW872 = settings: Homo sapiens, SW872
Description: SANGER: Inhibition of human SW872 cell growth in a cell viability assay.

A388 = settings: Homo sapiens, A388
Description: SANGER: Inhibition of human A388 cell growth in a cell viability assay.

A498 = settings: Homo sapiens, A498
Description: SANGER: Inhibition of human A498 cell growth in a cell viability assay.

ALL-PO = settings: Homo sapiens, ALL-PO
Description: SANGER: Inhibition of human ALL-PO cell growth in a cell viability assay.

ATN-1 = settings: Homo sapiens, ATN-1
Description: SANGER: Inhibition of human ATN-1 cell growth in a cell viability assay.

TE-10 = settings: Homo sapiens, TE-10
Description: SANGER: Inhibition of human TE-10 cell growth in a cell viability assay.

TE-5 = settings: Homo sapiens, TE-5
Description: SANGER: Inhibition of human TE-5 cell growth in a cell viability assay.

TE-8 = settings: Homo sapiens, TE-8
Description: SANGER: Inhibition of human TE-8 cell growth in a cell viability assay.

TGBC1TKB = settings: Homo sapiens, TGBC1TKB
Description: SANGER: Inhibition of human TGBC1TKB cell growth in a cell viability assay.

CCRF-CEM = settings: Homo sapiens, CCRF-CEM
Description: SANGER: Inhibition of human CCRF-CEM cell growth in a cell viability assay.

COLO-320-HSR = settings: Homo sapiens, COLO-320-HSR
Description: SANGER: Inhibition of human COLO-320-HSR cell growth in a cell viability assay.

## Nc1cccc2c1CN(C1CCC(=O)NC1=O)C2=O (stereo unspecified) [LENALIDOMIDE]
COLO-800
  IC50: > 5 µM
COLO-829
  IC50: > 5 µM
CTB-1
  IC50: > 5 µM
DEL
  IC50: > 5 µM
DMS-79
  IC50: > 5 µM
EC-GI-10
  IC50: > 5 µM
ES1
  IC50: > 5 µM
EW-16
  IC50: > 5 µM
GAK
  IC50: > 5 µM
GT3TKB
  IC50: > 5 µM
HEL
  IC50: > 5 µM
HL-60
  IC50: > 5 µM
JAR
  IC50: 2.97 µM
K562
  IC50: > 5 µM
KARPAS-45
  IC50: > 5 µM
KE-37
  IC50: > 5 µM
KU812 cell line
  IC50: > 5 µM
LAN-6
  IC50: > 5 µM
LB373-MEL-D
  IC50: > 5 µM
LC-2-ad
  IC50: > 5 µM
LNCaP-Clone-FGC
  IC50: > 5 µM
LS-513
  IC50: > 5 µM
LU-134-A
  IC50: > 5 µM
NCI-H209
  IC50: > 5 µM
NCI-H226
  IC50: > 5 µM
NCI-H720
  IC50: > 5 µM
NH-12
  IC50: > 5 µM
NOS-1
  IC50: > 5 µM
NTERA-2-cl-D1
  IC50: > 5 µM
P30-OHK
  IC50: > 5 µM
PSN1
  IC50: > 5 µM
QIMR-WIL
  IC50: > 5 µM
RH-1
  IC50: > 5 µM
RPMI-8866
  IC50: > 5 µM
SF-126
  IC50: > 5 µM
SF-539
  IC50: > 5 µM
SK-LMS-1
  IC50: > 5 µM
SW872
  IC50: > 5 µM
A388
  IC50: > 5 µM
A498
  IC50: > 5 µM
ALL-PO
  IC50: > 5 µM
ATN-1
  IC50: > 5 µM
TE-10
  IC50: > 5 µM
TE-5
  IC50: > 5 µM
TE-8
  IC50: > 5 µM
TGBC1TKB
  IC50: > 5 µM
CCRF-CEM
  IC50: > 5 µM
COLO-320-HSR
  IC50: > 5 µM

## CN(C)C(=N)NC(=N)N [METFORMIN]
COLO-829
  IC50: > 20000 µM
CTB-1
  IC50: > 20000 µM
DMS-79
  IC50: 5970 µM
EC-GI-10
  IC50: > 20000 µM
ES1
  IC50: > 20000 µM
EW-16
  IC50: 6780 µM
GAK
  IC50: > 20000 µM
GT3TKB
  IC50: > 20000 µM
HL-60
  IC50: > 20000 µM
JAR
  IC50: 9030 µM
KARPAS-45
  IC50: 3050 µM
KE-37
  IC50: 7490 µM
KU812 cell line
  IC50: 1060 µM
LNCaP-Clone-FGC
  IC50: 5230 µM
LS-513
  IC50: > 20000 µM
LU-134-A
  IC50: 13000 µM
NCI-H209
  IC50: 925 µM
NCI-H720
  IC50: 534 µM
NOS-1
  IC50: > 20000 µM
NTERA-2-cl-D1
  IC50: 19500 µM
P30-OHK
  IC50: 2760 µM
PSN1
  IC50: > 20000 µM
QIMR-WIL
  IC50: > 20000 µM
RPMI-8866
  IC50: 9030 µM
SF-126
  IC50: > 20000 µM
SF-539
  IC50: > 20000 µM
A388
  IC50: > 20000 µM
A498
  IC50: > 20000 µM
ALL-PO
  IC50: 2900 µM
ATN-1
  IC50: 8650 µM
TE-10
  IC50: > 20000 µM
TE-5
  IC50: > 20000 µM
TE-8
  IC50: > 20000 µM
TGBC1TKB
  IC50: > 20000 µM
CCRF-CEM
  IC50: 2720 µM
COLO-320-HSR
  IC50: > 20000 µM

## Cc1cn(-c2cc(NC(=O)c3ccc(C)c(Nc4nccc(-c5cccnc5)n4)c3)cc(C(F)(F)F)c2)cn1 [NILOTINIB]
COLO-800
  IC50: > 2 µM
COLO-829
  IC50: > 2 µM
CTB-1
  IC50: > 2 µM
DEL
  IC50: > 2 µM
DMS-79
  IC50: > 2 µM
EC-GI-10
  IC50: > 2 µM
ES1
  IC50: > 2 µM
EW-16
  IC50: > 2 µM
GAK
  IC50: > 2 µM
GT3TKB
  IC50: > 2 µM
HEL
  IC50: > 2 µM
HL-60
  IC50: > 2 µM
JAR
  IC50: > 2 µM
K562
  IC50: > 2 µM
KARPAS-45
  IC50: > 2 µM
KE-37
  IC50: > 2 µM
KU812 cell line
  IC50: 0.00248 µM
LAN-6
  IC50: > 2 µM
LB373-MEL-D
  IC50: > 2 µM
LC-2-ad
  IC50: > 2 µM
LNCaP-Clone-FGC
  IC50: > 2 µM
LS-513
  IC50: > 2 µM
LU-134-A
  IC50: > 2 µM
NCI-H209
  IC50: > 2 µM
NCI-H226
  IC50: > 2 µM
NCI-H720
  IC50: > 2 µM
NH-12
  IC50: > 2 µM
NOS-1
  IC50: > 2 µM
NTERA-2-cl-D1
  IC50: > 2 µM
P30-OHK
  IC50: > 2 µM
PSN1
  IC50: > 2 µM
QIMR-WIL
  IC50: > 2 µM
RH-1
  IC50: > 2 µM
RPMI-8866
  IC50: > 2 µM
SF-126
  IC50: > 2 µM
SF-539
  IC50: > 2 µM
SK-LMS-1
  IC50: > 2 µM
SW872
  IC50: > 2 µM
A388
  IC50: > 2 µM
A498
  IC50: > 2 µM
ALL-PO
  IC50: > 2 µM
ATN-1
  IC50: > 2 µM
TE-10
  IC50: > 2 µM
TE-5
  IC50: > 2 µM
TE-8
  IC50: > 2 µM
TGBC1TKB
  IC50: > 2 µM
CCRF-CEM
  IC50: > 2 µM
COLO-320-HSR
  IC50: > 2 µM

## CO[C@H]1C[C@@H]2CC[C@@H](C)[C@@](O)(O2)C(=O)C(=O)N2CCCC[C@H]2C(=O)O[C@H]([C@H](C)C[C@@H]2CC[C@@H](OC(=O)C(C)(CO)CO)[C@H](OC)C2)CC(=O)[C@H](C)/C=C(\C)[C@@H](O)[C@@H](OC)C(=O)[C@H](C)C[C@H](C)/C=C/C=C/C=C/1C [TEMSIROLIMUS]
COLO-800
  IC50: 0.129 µM
COLO-829
  IC50: > 0.2 µM
CTB-1
  IC50: 0.00293 µM
DEL
  IC50: 0.00546 µM
DMS-79
  IC50: > 0.2 µM
EC-GI-10
  IC50: > 0.2 µM
ES1
  IC50: 0.0245 µM
EW-16
  IC50: 0.0286 µM
GAK
  IC50: > 0.2 µM
GT3TKB
  IC50: 0.0906 µM
HEL
  IC50: 0.158 µM
HL-60
  IC50: > 0.2 µM
JAR
  IC50: > 0.2 µM
K562
  IC50: > 0.2 µM
KARPAS-45
  IC50: 0.0513 µM
KE-37
  IC50: 0.0165 µM
KU812 cell line
  IC50: > 0.2 µM
LAN-6
  IC50: > 0.2 µM
LB373-MEL-D
  IC50: > 0.2 µM
LC-2-ad
  IC50: > 0.2 µM
LNCaP-Clone-FGC
  IC50: 0.184 µM
LS-513
  IC50: > 0.2 µM
LU-134-A
  IC50: 0.0289 µM
NCI-H209
  IC50: 0.153 µM
NCI-H226
  IC50: > 0.2 µM
NCI-H720
  IC50: 0.00962 µM
NH-12
  IC50: > 0.2 µM
NOS-1
  IC50: > 0.2 µM
NTERA-2-cl-D1
  IC50: 0.0207 µM
P30-OHK
  IC50: > 0.2 µM
PSN1
  IC50: > 0.2 µM
QIMR-WIL
  IC50: 0.00571 µM
RH-1
  IC50: > 0.2 µM
RPMI-8866
  IC50: 0.0314 µM
SF-126
  IC50: 0.0229 µM
SF-539
  IC50: 0.121 µM
SK-LMS-1
  IC50: > 0.2 µM
SW872
  IC50: > 0.2 µM
A388
  IC50: > 0.2 µM
A498
  IC50: > 0.2 µM
ALL-PO
  IC50: > 0.2 µM
ATN-1
  IC50: > 0.2 µM
TE-10
  IC50: > 0.2 µM
TE-5
  IC50: > 0.2 µM
TE-8
  IC50: > 0.2 µM
TGBC1TKB
  IC50: 0.137 µM
CCRF-CEM
  IC50: > 0.2 µM
COLO-320-HSR
  IC50: > 0.2 µM

## CS(=O)(=O)c1ccc(C(=O)Nc2ccc(Cl)c(-c3ccccn3)c2)c(Cl)c1 [VISMODEGIB]
COLO-800
  IC50: > 10 µM
COLO-829
  IC50: > 10 µM
CTB-1
  IC50: > 10 µM
DEL
  IC50: > 10 µM
DMS-79
  IC50: > 10 µM
EC-GI-10
  IC50: > 10 µM
ES1
  IC50: > 10 µM
EW-16
  IC50: > 10 µM
GAK
  IC50: > 10 µM
GT3TKB
  IC50: > 10 µM
HEL
  IC50: > 10 µM
HL-60
  IC50: > 10 µM
JAR
  IC50: > 10 µM
K562
  IC50: > 10 µM
KARPAS-45
  IC50: > 10 µM
KE-37
  IC50: > 10 µM
LAN-6
  IC50: > 10 µM
LB373-MEL-D
  IC50: > 10 µM
LC-2-ad
  IC50: > 10 µM
LNCaP-Clone-FGC
  IC50: > 10 µM
LS-513
  IC50: > 10 µM
LU-134-A
  IC50: > 10 µM
NCI-H209
  IC50: > 10 µM
NCI-H226
  IC50: > 10 µM
NH-12
  IC50: > 10 µM
NOS-1
  IC50: > 10 µM
NTERA-2-cl-D1
  IC50: > 10 µM
P30-OHK
  IC50: > 10 µM
PSN1
  IC50: > 10 µM
QIMR-WIL
  IC50: > 10 µM
RH-1
  IC50: > 10 µM
RPMI-8866
  IC50: > 10 µM
SF-126
  IC50: > 10 µM
SF-539
  IC50: > 10 µM
SK-LMS-1
  IC50: > 10 µM
SW872
  IC50: > 10 µM
A388
  IC50: > 10 µM
A498
  IC50: > 10 µM
ALL-PO
  IC50: > 10 µM
ATN-1
  IC50: > 10 µM
TE-10
  IC50: > 10 µM
TE-5
  IC50: > 10 µM
TE-8
  IC50: > 10 µM
TGBC1TKB
  IC50: > 10 µM
CCRF-CEM
  IC50: > 10 µM
COLO-320-HSR
  IC50: > 10 µM

Source: ChEMBL document CHEMBL1201861, “Genomics of Drug Sensitity in Cancer screening data, Wellcome Trust Sanger Institute”
